{"source": "patent US20240083897A1", "about": "“GCN2 MODULATING COMPOUNDS AND USES THEREOF” (HiberCell, Inc., priority 2021, published 2024)", "target": "GCN2 (Homo sapiens (Human), UniProt Q9P2K8)", "sequence (Q9P2K8 whole entry)": "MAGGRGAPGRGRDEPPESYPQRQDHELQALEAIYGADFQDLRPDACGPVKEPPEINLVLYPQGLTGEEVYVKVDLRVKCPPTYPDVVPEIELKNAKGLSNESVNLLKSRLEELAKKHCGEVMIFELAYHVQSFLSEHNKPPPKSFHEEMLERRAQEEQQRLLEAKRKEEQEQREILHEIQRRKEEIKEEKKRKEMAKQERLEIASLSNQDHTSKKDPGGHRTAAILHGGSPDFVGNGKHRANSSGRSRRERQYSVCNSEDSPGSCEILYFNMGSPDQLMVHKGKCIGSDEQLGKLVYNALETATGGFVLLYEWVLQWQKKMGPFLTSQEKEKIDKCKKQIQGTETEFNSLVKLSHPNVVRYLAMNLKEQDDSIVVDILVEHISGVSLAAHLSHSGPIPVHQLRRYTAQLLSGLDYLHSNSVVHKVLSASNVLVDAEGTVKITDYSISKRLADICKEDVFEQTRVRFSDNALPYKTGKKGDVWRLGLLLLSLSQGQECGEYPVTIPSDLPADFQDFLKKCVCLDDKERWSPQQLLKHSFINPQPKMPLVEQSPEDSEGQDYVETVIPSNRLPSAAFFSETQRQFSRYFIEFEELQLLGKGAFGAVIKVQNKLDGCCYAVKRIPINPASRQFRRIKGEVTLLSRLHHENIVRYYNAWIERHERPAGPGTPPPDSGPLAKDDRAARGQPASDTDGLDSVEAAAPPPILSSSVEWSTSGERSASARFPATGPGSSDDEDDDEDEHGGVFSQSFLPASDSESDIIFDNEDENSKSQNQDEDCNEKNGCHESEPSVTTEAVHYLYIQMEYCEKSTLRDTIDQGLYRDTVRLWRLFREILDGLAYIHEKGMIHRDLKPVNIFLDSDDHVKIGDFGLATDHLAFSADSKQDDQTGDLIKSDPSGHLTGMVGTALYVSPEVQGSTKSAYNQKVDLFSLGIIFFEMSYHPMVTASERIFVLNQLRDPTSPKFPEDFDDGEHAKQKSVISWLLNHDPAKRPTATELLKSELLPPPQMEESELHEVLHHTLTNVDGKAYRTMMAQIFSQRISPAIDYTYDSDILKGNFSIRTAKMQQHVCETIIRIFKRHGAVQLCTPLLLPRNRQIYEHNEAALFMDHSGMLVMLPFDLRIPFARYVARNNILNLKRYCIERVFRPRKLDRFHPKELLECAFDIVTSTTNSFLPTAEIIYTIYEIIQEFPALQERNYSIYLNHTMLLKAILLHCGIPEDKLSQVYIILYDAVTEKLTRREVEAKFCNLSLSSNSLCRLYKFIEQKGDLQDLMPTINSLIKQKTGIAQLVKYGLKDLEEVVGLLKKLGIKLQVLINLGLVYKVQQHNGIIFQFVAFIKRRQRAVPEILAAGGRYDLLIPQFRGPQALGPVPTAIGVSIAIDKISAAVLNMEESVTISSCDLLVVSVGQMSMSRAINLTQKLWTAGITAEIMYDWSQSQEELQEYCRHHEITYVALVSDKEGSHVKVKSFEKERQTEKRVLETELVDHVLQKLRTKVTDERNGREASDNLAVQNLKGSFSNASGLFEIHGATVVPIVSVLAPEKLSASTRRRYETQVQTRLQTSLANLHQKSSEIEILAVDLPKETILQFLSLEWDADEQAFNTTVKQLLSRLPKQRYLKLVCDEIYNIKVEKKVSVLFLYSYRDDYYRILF", "assay": "TR-FRET biochemical assay for inhibition of GCN2", "key": {"[1]": {"details": "GCN2 2 nM, 100 nM GFP-eIF2a, 150 μM ATP, TR-FRET"}}, "note": "Where two headings read alike, the source gives them in different places."}
{"smiles": "COc1ncc(C#N)cc1S(=O)(=O)Nc1ccc(F)c(-c2ccc3c(-n4cnnn4)ncn3c2)c1F", "note": "[Compound 75, 5-cyano-N-[2,4-difluoro-3-[1-(1,2,3,4-tetrazol-1-yl)imidazo[1,5-a]pyridin-6-yl]phenyl]-2-methoxypyridine-3-sulfonamide]", "values": [{"measurement": "IC50", "setting": "[1]", "result": "< 50", "unit": "nM"}]}
{"smiles": "Cc1ncc(F)cc1S(=O)(=O)Nc1ccc(F)c(-c2ccc3c(-n4cnnn4)ncn3c2)c1F", "note": "[Compound 76, N-[2,4-difluoro-3-[1-(1,2,3,4-tetrazol-1-yl)imidazo[1,5-a]pyridin-6-yl]phenyl]-5-fluoro-2-methylpyridine-3-sulfonamide]", "values": [{"measurement": "IC50", "setting": "[1]", "result": "< 50", "unit": "nM"}]}
{"smiles": "Cc1ncc(Cl)cc1S(=O)(=O)Nc1ccc(F)c(-c2ccc3c(-n4cnnn4)ncn3c2)c1F", "note": "[Compound 77, 5-chloro-N-[2,4-difluoro-3-[1-(1,2,3,4-tetrazol-1-yl)imidazo[1,5-a]pyridin-6-yl]phenyl]-2-methylpyridine-3-sulfonamide]", "values": [{"measurement": "IC50", "setting": "[1]", "result": "< 50", "unit": "nM"}]}
{"smiles": "COc1ncc(F)cc1S(=O)(=O)Nc1ccc(F)c(-c2cn3cnc(-c4ncc[nH]4)c3cn2)c1F", "note": "[Compound 78, N-[2,4-difluoro-3-[1-(1H-imidazol-2-yl)imidazo[1,5-a]pyrazin-6-yl]phenyl]-5-fluoro-2-methoxypyridine-3-sulfonamide]", "values": [{"measurement": "IC50", "setting": "[1]", "result": "< 50", "unit": "nM"}]}
{"smiles": "COc1ncc(Cl)cc1S(=O)(=O)Nc1ccc(F)c([C@H]2CCc3c(-c4ncc[nH]4)ncn3C2)c1F", "note": "[Compound 79-1, 5-chloro-N-[2,4-difluoro-3-[(6R)-1-(1H-imidazol-2-yl)-5H,6H,7H,8H-imidazo[1,5-a]pyridin-6-yl]phenyl]-2-methoxypyridine-3-sulfonamide]", "values": [{"measurement": "IC50", "setting": "[1]", "result": "< 50", "unit": "nM"}]}
{"smiles": "COc1ncc(Cl)cc1S(=O)(=O)Nc1ccc(F)c([C@@H]2CCc3c(-c4ncc[nH]4)ncn3C2)c1F", "note": "[Compound 79-2, 5-chloro-N-[2,4-difluoro-3-[(6S)-1-(1H-imidazol-2-yl)-5H,6H,7H,8H-imidazo[1,5-a]pyridin-6-yl]phenyl]-2-methoxypyridine-3-sulfonamide]", "values": [{"measurement": "IC50", "setting": "[1]", "result": "< 50", "unit": "nM"}]}
{"smiles": "Cc1ncc(F)cc1S(=O)(=O)Nc1ccc(F)c([C@H]2CCc3c(-c4ncc[nH]4)ncn3C2)c1F", "note": "[Compound 80-1, N-[2,4-difluoro-3-[(6R)-1-(1H-imidazol-2-yl)-5H,6H,7H,8H-imidazo[1,5-a]pyridin-6-yl]phenyl]-5-fluoro-2-methylpyridine-3-sulfonamide]", "values": [{"measurement": "IC50", "setting": "[1]", "result": "< 50", "unit": "nM"}]}
{"smiles": "Cc1ncc(F)cc1S(=O)(=O)Nc1ccc(F)c([C@@H]2CCc3c(-c4ncc[nH]4)ncn3C2)c1F", "note": "[Compound 80-2, N-[2,4-difluoro-3-[(6S)-1-(1H-imidazol-2-yl)-5H,6H,7H,8H-imidazo[1,5-a]pyridin-6-yl]phenyl]-5-fluoro-2-methylpyridine-3-sulfonamide]", "values": [{"measurement": "IC50", "setting": "[1]", "result": "< 50", "unit": "nM"}]}
{"smiles": "COc1ncc(F)cc1S(=O)(=O)Nc1ccc(F)c([C@H]2CCc3c(-c4ncc[nH]4)ncn3C2)c1F", "note": "[Compound 81-1, N-[2,4-difluoro-3-[(6R)-1-(1H-imidazol-2-yl)-5H,6H,7H,8H-imidazo[1,5-a]pyridin-6-yl]phenyl]-5-fluoro-2-methoxypyridine-3-sulfonamide]", "values": [{"measurement": "IC50", "setting": "[1]", "result": "< 50", "unit": "nM"}]}
{"smiles": "COc1ncc(F)cc1S(=O)(=O)Nc1ccc(F)c([C@@H]2CCc3c(-c4ncc[nH]4)ncn3C2)c1F", "note": "[Compound 81-2, N-[2,4-difluoro-3-[(6S)-1-(1H-imidazol-2-yl)-5H,6H,7H,8H-imidazo[1,5-a]pyridin-6-yl]phenyl]-5-fluoro-2-methoxypyridine-3-sulfonamide]", "values": [{"measurement": "IC50", "setting": "[1]", "result": "< 50", "unit": "nM"}]}
{"smiles": "COc1ncc(C#N)cc1S(=O)(=O)Nc1ccc(F)c([C@H]2CCc3c(-c4ncc[nH]4)ncn3C2)c1F", "note": "[Compound 82-1, 5-cyano-N-[2,4-difluoro-3-[(6R)-1-(1H-imidazol-2-yl)-5H,6H,7H,8H-imidazo[1,5-a]pyridin-6-yl]phenyl]-2-methoxypyridine-3-sulfonamide]", "values": [{"measurement": "IC50", "result": "50 to 500", "unit": "nM"}]}
{"smiles": "COc1ncc(C#N)cc1S(=O)(=O)Nc1ccc(F)c([C@@H]2CCc3c(-c4ncc[nH]4)ncn3C2)c1F", "note": "[Compound 82-2, 5-cyano-N-[2,4-difluoro-3-[(6S)-1-(1H-imidazol-2-yl)-5H,6H,7H,8H-imidazo[1,5-a]pyridin-6-yl]phenyl]-2-methoxypyridine-3-sulfonamide]", "values": [{"measurement": "IC50", "result": "50 to 500", "unit": "nM"}]}
